As usually defined, the Ki is the dissociation constant of the complex between target and ligand, obtained from inhibition or displacement.

Results on 2 compounds are retold here after patent US20040038855A1 (priority 1999, published 2004).

Each structure is given as a SMILES string.

Experiment [1] deals with T1, rat MCH1 receptor (Rattus norvegicus, UniProt P97639).
T1 construct: expressed in transfected cells
The experiment is described as follows: Binding affinity (Ki) at the rat MCH1 receptor. The conditions noted are these: Examples 142-153; read-out: Ki (nM) rMCH1.

The test system of experiment [2] is micturition reflex, conscious male Sprague Dawley rats. The experiment is described as follows: Continuous Slow Transvesicular Infusion (CSTI) rat model. It is filed as in vivo. On the set-up: key to Effect of MCH1 antagonist in the CSTI model: B = Produced an increase in bladder capacity in rats relative to baseline capacity. Particulars: bladder capacity, intragastric. The protocol: The effects of compounds on the micturition reflex were assessed in the “distension-induced rhythmic contraction” (DIRC), as described in previous publications (e.g. Maggi et al, 1987; Morikawa et al, 1992), and Continuous Slow Transvesicular Infusion (CSTI) models in rats. Male Sprague Dawley rats weighing approximately 300 g were used for the study. Rats were anaesthetized with pentobarbitone sodium (50 mg/kg, i.p). Through a median abdominal incision, bladder was exposed and a polyethylene cannula (PE 50) was introduced into the bladder through a small cut on the dome of the bladder and the cannula was secured with a purse string suture. The other end of the cannula was exteriorized subcutaneously at the dorsal neck area. Similarly, another cannula (PE 50) was introduced into the stomach through a paramedian abdominal incision with the free end exteriorized subcutaneously to the neck region. The surgical wounds were closed with silk 4-0 suture and the animal was allowed to recover with appropriate post surgical care. On the following day, the animal was placed in a rat restrainer. The open end of the bladder cannula was connected to a pressure transducer as well as infusion pump through a three-way stopcock. The bladder voiding cycles were initiated by continuous infusion of normal saline at the rate of 100 ul/min. The repetitive voiding contractions were recorded on a Power Lab on-line data acquisition software. After recording the basal voiding pattern for an hour, the test drug or vehicle was administered directly into stomach through the intragastric catheter and the voiding cycles were monitored for 5 hours. Micturition pressure and frequency were calculated before and after the treatment (at every 30 min interval) for each animal. Bladder capacity was calculated from the micturition frequency, based on the constant infusion of 100 ul/min. The effect of the test drug was expressed as a percentage of basal, pre-drug bladder capacity. WAY 100635 was used as positive control for comparison.

For experiment [3], the system named is micturition reflex, anesthetized female Sprague Dawley rats. The experiment can be described thus: Distension-induced rhythmic contraction (DIRC) model. Particulars: contraction interval, i.v. or i.p. On the set-up: key: A = Produced a significant increase in contraction interval relative to pre-drug interval. Format: in vivo, rat. The protocol: The effects of compounds on the micturition reflex were assessed in the “distension-induced rhythmic contraction” (DIRC), as described in previous publications (e.g. Maggi et al, 1987; Morikawa et al, 1992), and Continuous Slow Transvesicular Infusion (CSTI) models in rats.
Female Sprague Dawley rats weighing approximately 300 g were anesthetized with subcutaneous urethane (1.2 g/kg). The trachea was cannulated with PE240 tubing to provide a clear airway throughout the experiment. A midline abdominal incision was made and the left and right ureters were isolated. The ureters were ligated distally (to prevent escape of fluids from the bladder) and cannulated proximally with PE10 tubing. The incision was closed using 4-0 silk sutures, leaving the PE10 lines routed to the exterior for the elimination of urine. The bladder was canulated via the transurethral route using PE50 tubing inserted 2.5 cm beyond the urethral opening. This cannula was secured to the tail using tape and connected to a pressure transducer. To prevent leakage from the bladder, the cannula was tied tightly to the exterior urethral opening using 4-0 silk.
To initiate the micturition reflex, the bladder was first emptied by applying pressure to the lower abdomen, and then filled with normal saline in […] (maximum 2 ml) until spontaneous bladder contractions occurred (typically 20-40 mmHg at a rate of one contraction every 2 to 3 minutes. Once a regular rhythm was established, vehicle (saline) or Test Compounds were administered i.v. or i.p. to explore their effects on bladder activity. The 5-HT1A antagonist WAY-100635 was given as a positive control. Data were expressed as contraction interval (in seconds) before drug application (basal), or after the application of vehicle or test article.

Experiment [4] deals with human MCH1 receptor (Homo sapiens, UniProt Q99705). The experiment is described as follows: Saturation and competition binding of [3H]Compound 10, membranes of Cos-7 cells transfected with MCH1. On the set-up: expressed in transfected cells; host or cells: COS-7. The procedure:
Saturation equilibrium binding of [3H]Compound 10 to the human MCH1 receptor. Membrane preparations from Cos-7 cells transfected with MCH1 were incubated with varying concentrations of [3H]Compound 10 (SA: 56 Ci/mmol) at room temperature for 90 min, in a volume of 0.250 ml. The reaction was terminated by filtration in GF/C filters, and the radioactivity determined by scintillation counting. Non-specific binding was defined as the amount of radioactivity retained in the filter after incubating the reaction mixture in the presence of unlabeled Compound 10 ([…]).
Competition binding of [3H]Compound 10 to the human MCH1 receptor. […] The reaction was terminated by filtration in GF/C filters and the radioactivity bound to the membrane was determined by scintillation counting.
[3H]Compound 10 was tested for its ability to bind to membrane preparations of cells expressing the human MCH1 receptor.

Experiment [5] concerns the target T2, MCH1 receptor binding sites in the rat CNS (Rattus norvegicus, UniProt P97639).
T2 construct: from tissue; host or cells: coronal brain and spinal cord sections of male Sprague-Dawley rats
The experiment can be described thus: Receptor autoradiography with [3H]Compound 10 on rat brain and spinal cord sections. The arrangement: key to Density of MCH1 receptor binding sites: absent (−); weak (+); moderate (++); heavy (+++); intense (++++). The conditions noted are these: for Density of MCH1 receptor binding sites: 0.1 nM [3H] Compound 10, 1 μM prazosin, 100 μM dopamine, rat CNS. The protocol: Male Sprague-Dawley rats (Charles Rivers, Rochester, N.Y.) were euthanized using CO2 and decapitated and their brains rapidly removed and frozen on crushed dry ice. Coronal sections were cut at 20 μm using a cryostat and thaw-mounted onto gelatin-coated slides then stored at −20° C. until use.
Dopamine, prazosin, and phenanthroline were obtained from Sigma (St. Louis, Mo.). Phenylmethylsulfonyl Fluoride (PMSF) was from Calbiochem (La Jolla, Calif.). See also Chemical Synthetic Methods described hereinafter.
Tissue sections were allowed to equilibrate to room temperature for one hour. Sections were incubated at 25° C. for 1.5 hours in 50 mM Tris-HCl buffer, pH 7.4, containing 10 mM MgCl2, 0.16 mM PMSF, 0.3 mM phenanthroline, 0.2% bovine serum albumin (Boehringer Mannheim, Indianapolis, Ind.), 100 μM dopamine, 1 μM prazosin, […] Following incubation the sections were washed twice for 5 minutes each in 4° C. 50 mM Tris-buffer, pH 7.4, then rapidly dipped in ice-cold distilled water to remove the salts. Tissues were dried under a stream of cold air and apposed together with ^3H-plastic standard scales, to Hyperfilm-^3H (Amersham, Piscataway, N.J.) for 6 weeks. Films were developed using a Kodak developer-D19 and Rapid fixer (Kodak, Rochester, N.Y.). […]

T2 sequence (P97639 whole entry): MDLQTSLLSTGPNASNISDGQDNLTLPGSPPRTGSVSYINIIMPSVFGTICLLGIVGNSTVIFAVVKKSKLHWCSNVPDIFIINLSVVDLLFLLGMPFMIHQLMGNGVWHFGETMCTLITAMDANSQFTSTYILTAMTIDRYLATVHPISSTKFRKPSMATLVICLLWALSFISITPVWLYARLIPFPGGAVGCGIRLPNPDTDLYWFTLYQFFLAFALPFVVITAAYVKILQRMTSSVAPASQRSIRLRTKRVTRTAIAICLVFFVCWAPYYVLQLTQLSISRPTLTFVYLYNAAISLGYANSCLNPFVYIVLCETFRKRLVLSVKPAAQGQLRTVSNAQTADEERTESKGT
Sequence of human MCH1 receptor (Q99705 whole entry): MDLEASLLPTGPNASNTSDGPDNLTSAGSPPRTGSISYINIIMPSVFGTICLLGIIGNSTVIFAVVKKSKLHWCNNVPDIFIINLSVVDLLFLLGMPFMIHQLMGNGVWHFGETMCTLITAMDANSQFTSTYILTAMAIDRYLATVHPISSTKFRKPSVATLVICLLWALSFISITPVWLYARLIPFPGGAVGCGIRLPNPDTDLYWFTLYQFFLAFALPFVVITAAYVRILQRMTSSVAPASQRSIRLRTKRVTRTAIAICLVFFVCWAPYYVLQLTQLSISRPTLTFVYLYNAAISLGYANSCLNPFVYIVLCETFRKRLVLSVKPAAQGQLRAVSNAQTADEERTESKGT
T1 sequence (P97639 whole entry): as the sequence (P97639 whole entry) above

As to `Cc1onc(-c2c(Cl)cccc2Cl)c1C(=O)NCCCCCN1CCC(c2cccc(NC(=O)C(C)C)c2)CC1` [Example 149], in experiment [1], the Ki was determined as 7.1 nM. In addition, the “Effect of MCH1 antagonist in the CSTI model” value in experiment [2] was “B”. Moreover, the “Effect of MCH1 antagonist in the DIRC model” value in experiment [3] is “A”.

Consider `[3H]C1CN(CCCNC(=O)N2C(=O)NC(COC)=C(C(=O)OC)[C@@H]2c2ccc(F)c(F)c2)CCC1([3H])c1cccc(NC(C)=O)c1` (stereo partly drawn) [[3H]Compound 10, TRITIATED METHYL (4S)-3-{[(3-{4-[3-(ACETYLAMINO)PHENYL]-1-PIPERIDINYL}PROPYL)AMINO]CARBONYL}-4-(3,4-DIFLUOROPHENYL)-6-(METHOXYMETHYL)-2-OXO-1,2,3,4-TETRAHYDRO-5-PYRIMIDINECARBOXYLATE], for which the “maximum number of binding sites (Bmax)” value in experiment [4] worked out at 870 fmol/mg protein. Further, in experiment [5] (0.1 nM with 100 μM dopamine and 1 μM prazosin, nonspecific: 10 μM unlabeled Compound 10), the specific binding result is “approximately 95%”. The “Density of MCH1 receptor binding sites” value in experiment [5] (Amygdala: Anterior cortical n.) is recorded as “+”; in experiment [5] (Amygdala: Basolateral amygdaloid n.) it was “+”; in experiment [5] (Amygdala: Bed n. Of the stria terminalis), “++”; in experiment [5] (Amygdala: Central amygdaloid n.), “+”; in experiment [5] (Basal Ganglia: Accumbens n., core), “+++”; in experiment [5] (Basal Ganglia: Accumbens n., shell), “++++”. The “Density of MCH1 receptor binding sites” value is on record as “+++” in experiment [5] (Basal Ganglia: Caudate-putamen); “−” in experiment [5] (Basal Ganglia: Globus pallidus); “+” in experiment [5] (Basal Ganglia: Medial septal n.); “+” in experiment [5] (Basal Ganglia: Septohippocampal n.); “−” in experiment [5] (Cerebellum); “+” in experiment [5] (Diencephalon, Thalamus: Anterodorsal n.). Also, the “Density of MCH1 receptor binding sites” value was “+” in experiment [5] (Diencephalon, Thalamus: Centromedial n.); “−” in experiment [5] (Diencephalon, Thalamus: Mediodorsal n.); “+” in experiment [5] (Diencephalon, Thalamus: Paraventricular n.); “+” in experiment [5] (Diencephalon, Thalamus: Reticular n.); “+” in experiment [5] (Diencephalon: Hypothalamus); “++” in experiment [5] (Hippocampal formation: CA1). In addition, the “Density of MCH1 receptor binding sites” value is “++” in experiment [5] (Hippocampal formation: CA2); “++” in experiment [5] (Hippocampal formation: CA3); “++” in experiment [5] (Hippocampal formation: Pre/parasubiculum); “++” in experiment [5] (Locus coeruleus (listed under Mesencephalon)); “+” in experiment [5] (Mesencephalon: Caudal linear raphe n.); “++” in experiment [5] (Mesencephalon: Interpeduncular n.). In addition, the “Density of MCH1 receptor binding sites” value in experiment [5] (Mesencephalon: Periaqueductal gray) is “+”; in experiment [5] (Mesencephalon: Pontine n.) it was “+”; in experiment [5] (Mesencephalon: Substantia nigra) it was “+”; in experiment [5] (Mesencephalon: Superior colliculus), “++”; in experiment [5] (Olfactory System: Anterior olfactory n.), “+”; in experiment [5] (Olfactory System: Islands of Calleja, major), “+++”. The “Density of MCH1 receptor binding sites” value in experiment [5] (Olfactory System: Olfactory tubercle) was “+++”; in experiment [5] (Spinal cord: Dorsal horn) it was “+”; in experiment [5] (Spinal cord: Ventral horn) it was “+”; in experiment [5] (Telencephalon: Claustrum) it was “++”; in experiment [5] (Telencephalon: Dorsal endopiriform n.) it was “+”.
